pIC50: −log10 of the molar value.
Biological target: T1, murine MEKK2 (mMEKK2) (Mus musculus, UniProt Q61083)
T1 sequence (Q61083 1-619): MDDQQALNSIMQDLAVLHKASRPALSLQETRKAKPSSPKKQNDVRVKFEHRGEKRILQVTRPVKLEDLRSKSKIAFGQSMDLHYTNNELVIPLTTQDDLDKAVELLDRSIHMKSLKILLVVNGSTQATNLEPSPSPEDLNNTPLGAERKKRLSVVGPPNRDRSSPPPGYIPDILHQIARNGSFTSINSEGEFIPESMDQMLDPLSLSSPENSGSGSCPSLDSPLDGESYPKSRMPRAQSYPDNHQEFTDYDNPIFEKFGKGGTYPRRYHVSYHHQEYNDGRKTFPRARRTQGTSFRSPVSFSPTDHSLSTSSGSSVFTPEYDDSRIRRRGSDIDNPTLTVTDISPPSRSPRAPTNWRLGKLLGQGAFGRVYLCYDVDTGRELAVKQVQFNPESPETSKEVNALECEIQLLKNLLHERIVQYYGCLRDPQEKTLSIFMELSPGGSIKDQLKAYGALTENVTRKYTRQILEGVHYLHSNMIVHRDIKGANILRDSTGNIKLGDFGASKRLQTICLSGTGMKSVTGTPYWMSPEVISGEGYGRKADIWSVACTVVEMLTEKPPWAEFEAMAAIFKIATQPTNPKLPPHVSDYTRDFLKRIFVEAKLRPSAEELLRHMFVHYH
Assay: TR-FRET kinase assay (mMEKK2/MBP)
Type: biochemical
Settings: substrate biotin MBP, 60 minutes at room temperature
Description: In one approach, MEKK2 inhibitory activity of compounds of the invention can be assessed using the time-resolved Fluorescence Resonance Energy Transfer (TR-FRET) assay detailed in Example 5. In this assay, the excitation energy of one fluorescent molecule (the donor) is transferred by a resonance mechanism to a nearby second fluorescent molecule (the acceptor), which then releases its fluorescent energy through fluorescent emission. This fluorescent energy is measured using a time-resolved fluorescence measurement protocol (LANCE high count 615/665); excitation occurred with 1,000 flashes at 325 nm, measurement was delayed by 100 μs, and data were acquired for 50 μs at 615 and 665 nm.
A TR-FRET kinase assay was used to screen potential inhibitors of MEKK2. The assay was performed as follows: Compounds to be tested were weighed and solubilized in DMSO (Sigma) to a stock concentration of 10 mM. Serial dilutions starting from 1 mM were prepared with additional DMSO. These dilutions were further diluted to 250 μM in kinase reaction buffer [20 mM Hepes pH 7.5, 5 mM MgCl2, 1 mM DTT (Dithiothreitol-Sigma), 1 mM NaVO4 (sodium vanadate-Sigma). A 25 μl aliquot of this solution was transferred to a black 96-well nonbinding surface microplate (Fisher). A stock aliquot containing […] of murine MEKK2 (mMEKK2) was diluted in the kinase reaction buffer and incubated with the compounds on the microplate for 10 minutes. A 25 μl aliquot of a 138 ng solution of biotin MBP (myelin basic protein—Upstate Biotechnology) was added to the reaction followed by 25 ul of a 25 ng solution of anti-phospho MBP antibody (Upstate Biotechnology) diluted in kinase reaction buffer. Finally an aliquot (50 μl) of a 5 uM solution of ATP (adenosine triphosphate) was added and the reaction was allowed to proceed for 60 minutes at room temperature. The reaction was stopped by the addition of 50 μL of a 12.5 ng solution of europium labeled anti-mouse IgG (Perkin Elmer) and 45 ng of Cy5 labeled streptavidin (Jackson Immunoresearch) in termination buffer (20 mM Hepes pH 7.5, 100 mM EDTA; Sigma). The assay was allowed to equilibrate for 45 minutes before placing the plate on the Victor™ plate reader. The plate was read using the 615/665 LANCE protocol.

SMILES | pIC50
COc1cccc(-c2nc(SCc3cccc(NC(=O)c4cc(C(C)(C)C)nn4C)c3)[nH]c(=O)c2C#N)c1 [Example 2q] | > 5.30
COc1cccc(-c2nc(SCc3ccc(NC(=O)c4ccc(OC(F)(F)F)cc4)cc3)[nH]c(=O)c2C#N)c1 [Example 2qq] | > 5.30
COc1cccc(-c2nc(SCc3cccc(NC(=O)c4cc(C)on4)c3)[nH]c(=O)c2C#N)c1 [Example 2r] | > 4.70
COc1cccc(-c2nc(SCc3ccc(NC(=O)c4ccc(F)c(C(F)(F)F)c4)cc3)[nH]c(=O)c2C#N)c1 [Example 2rr] | > 5.30
COc1cccc(-c2nc(SCc3cccc(NC(=O)c4sccc4C)c3)[nH]c(=O)c2C#N)c1 [Example 2s] | > 5.00
COc1cccc(-c2nc(SCc3ccc(NC(=O)c4cccc(C(F)(F)F)c4)cc3)[nH]c(=O)c2C#N)c1 [Example 2ss] | > 5.30
COc1cccc(-c2nc(SCc3cccc(NC(=O)c4cnn(C)c4Cl)c3)[nH]c(=O)c2C#N)c1 [Example 2t] | > 4.40
COc1cccc(-c2nc(SCc3ccc(NC(=O)c4ccc(Cl)c(Cl)c4)cc3)[nH]c(=O)c2C#N)c1 [Example 2tt] | > 6.00
COc1cccc(-c2nc(SCc3cccc(NC(=O)c4ccc(OC)cc4OC)c3)[nH]c(=O)c2C#N)c1 [Example 2u] | > 4.70
COc1cccc(-c2nc(SCc3ccc(NC(=O)c4cc(C)nn4C(C)(C)C)cc3)[nH]c(=O)c2C#N)c1 [Example 2uu] | > 4.70
COc1cccc(-c2nc(SCc3cccc(NC(=O)c4csc(Cl)c4OC)c3)[nH]c(=O)c2C#N)c1 [Example 2v] | > 4.70
COc1cccc(-c2nc(SCc3ccc(NC(=O)Cc4ccccc4)cc3)[nH]c(=O)c2C#N)c1 [Example 2vv] | > 4.70
COc1cccc(-c2nc(SCc3cccc(NC(=O)c4cc(C)nn4C(C)(C)C)c3)[nH]c(=O)c2C#N)c1 [Example 2w] | > 4.40
COc1cccc(-c2nc(SCc3ccc(NC(=O)c4c(F)cc(F)cc4F)cc3)[nH]c(=O)c2C#N)c1 [Example 2ww] | > 4.70
COc1cccc(-c2nc(SCc3cccc(NC(=O)c4cc(Cl)nc(OC)c4)c3)[nH]c(=O)c2C#N)c1 [Example 2x] | > 5.00
COc1cccc(-c2nc(SCc3ccc(NC(=O)C4CCN(c5nccc(C(F)(F)F)n5)CC4)cc3)[nH]c(=O)c2C#N)c1 [Example 2xx] | < 4.40
COc1cccc(-c2nc(SCc3ccc(NC(=O)c4ccc(Cl)nc4)cc3)[nH]c(=O)c2C#N)c1 [Example 2yy] | > 4.70
COc1cccc(-c2nc(SCc3ccc(NC(=O)c4cccnc4Oc4ccc(Cl)cc4)cc3)[nH]c(=O)c2C#N)c1 [Example 2zz] | < 4.40

Now from value to compound:

pIC50 | SMILES
> 6.00 | COc1cccc(-c2nc(SCc3ccc(NC(=O)Nc4cccc5nsnc45)cc3)[nH]c(=O)c2C#N)c1 [Example 3aa]
> 5.30 | COc1cccc(-c2nc(SCc3cccc(NC(=O)Nc4cc(F)cc(F)c4)c3)[nH]c(=O)c2C#N)c1 [Example 3b, 1-{3-[5-Cyano-4-(3-methoxy-phenyl)-6-oxo-1,6-dihydro-pyrimidin-2-ylsulfanylmethyl]-phenyl}-3-(3,5-difluoro-phenyl)-urea]
< 4.40 | COc1cccc(-c2nc(SCc3ccc(NC(=O)NC4CCNCC4)cc3)[nH]c(=O)c2C#N)c1 [Example 3bb]
> 5.30 | COc1cccc(-c2nc(SCc3cccc(NC(=O)NCc4ccccc4)c3)[nH]c(=O)c2C#N)c1 [Example 3c]
> 5.30 | COc1cccc(-c2nc(SCc3cccc(NC(=O)Nc4ccccc4)c3)[nH]c(=O)c2C#N)c1 [Example 3d]
> 5.30 | COc1cccc(-c2nc(SCc3cccc(NC(=O)NCCc4cccs4)c3)[nH]c(=O)c2C#N)c1 [Example 3e]
> 5.30 | COc1cccc(-c2nc(SCc3cccc(NC(=O)NC4CCCC4)c3)[nH]c(=O)c2C#N)c1 [Example 3f]
> 5.00 | COc1cccc(-c2nc(SCc3cccc(NC(=O)NCc4ccco4)c3)[nH]c(=O)c2C#N)c1 [Example 3g]
> 4.40 | COc1cccc(-c2nc(SCc3cccc(NC(=O)NCc4cc(OC)c(OC)c(OC)c4)c3)[nH]c(=O)c2C#N)c1 [Example 3i]
> 5.00 | COc1cccc(-c2nc(SCc3cccc(NC(=O)Nc4ccc5c(c4)OCCO5)c3)[nH]c(=O)c2C#N)c1 [Example 3j]
> 5.00 | COc1cccc(-c2nc(SCc3cccc(NC(=O)NCCc4ccc5c(c4)OCO5)c3)[nH]c(=O)c2C#N)c1 [Example 3k]
> 5.00 | COc1cccc(-c2nc(SCc3ccc(NC(=O)NCc4ccccc4)cc3)[nH]c(=O)c2C#N)c1 [Example 3l]
> 5.30 | COc1cccc(-c2nc(SCc3ccc(NC(=O)Nc4ccccc4)cc3)[nH]c(=O)c2C#N)c1 [Example 3m]
> 4.70 | COc1cccc(-c2nc(SCc3ccc(NC(=O)Nc4cccc(C#N)c4)cc3)[nH]c(=O)c2C#N)c1 [Example 3o]
> 4.70 | COc1cccc(-c2nc(SCc3ccc(NC(=O)Nc4ccc5c(c4)OCO5)cc3)[nH]c(=O)c2C#N)c1 [Example 3p]
< 4.40 | COc1cccc(-c2nc(SCc3ccc(NC(=O)Nc4c(Cl)cccc4Cl)cc3)[nH]c(=O)c2C#N)c1 [Example 3q]
> 5.30 | COc1cccc(-c2nc(SCc3ccc(NC(=O)Nc4cc(F)cc5c4OCOC5)cc3)[nH]c(=O)c2C#N)c1 [Example 3r]

pIC50 | SMILES
> 5.30 | COc1cccc(-c2nc(SCc3ccc(NC(=O)Nc4ccc(Cl)c(C(F)(F)F)c4)cc3)[nH]c(=O)c2C#N)c1 [Example 3s]
> 5.30 | COc1cccc(-c2nc(SCc3ccc(NC(=O)Nc4cc(C(F)(F)F)ccc4Cl)cc3)[nH]c(=O)c2C#N)c1 [Example 3t]
> 5.00 | COc1cccc(-c2nc(SCc3ccc(NC(=O)Nc4cc([N+](=O)[O-])ccc4F)cc3)[nH]c(=O)c2C#N)c1 [Example 3u]
> 6.00 | COc1cccc(-c2nc(SCc3ccc(NC(=O)Nc4cccc(Oc5ccccc5)c4)cc3)[nH]c(=O)c2C#N)c1 [Example 3v]
> 5.30 | COc1cccc(-c2nc(SCc3ccc(NC(=O)NCCc4cccs4)cc3)[nH]c(=O)c2C#N)c1 [Example 3w]
> 6.00 | COc1cccc(-c2nc(SCc3ccc(NC(=O)Nc4cc(C(F)(F)F)cc(C(F)(F)F)c4)cc3)[nH]c(=O)c2C#N)c1 [Example 3x]
> 6.00 | COc1cccc(-c2nc(SCc3ccc(NC(=O)NC4CCCCC4)cc3)[nH]c(=O)c2C#N)c1 [Example 3y]
> 6.00 | COc1cccc(-c2nc(SCc3ccc(NC(=O)NC(c4ccccc4)c4ccccc4)cc3)[nH]c(=O)c2C#N)c1 [Example 3z]
< 4.40 | COc1cccc(-c2nc(SCc3cccc(NCc4ccc(OCCN(C)c5ccncc5)cc4)c3)[nH]c(=O)c2C#N)c1 [Example 4b]
< 4.40 | N#Cc1c(-c2cccc(Cn3cncn3)c2)nc(SCc2cccc(NC(=O)c3ccc(Cl)c(Cl)c3)c2)[nH]c1=O [Example 4bb]
< 4.40 | COc1cccc(-c2nc(SCc3cccc(NCC4CCN(c5ccncc5)CC4)c3)[nH]c(=O)c2C#N)c1 [Example 4c]
< 4.40 | N#Cc1c(-c2cccc(Cn3ccnc3)c2)nc(SCc2cccc(NC(=O)c3ccc(Cl)c(Cl)c3)c2)[nH]c1=O [Example 4cc]
< 4.40 | CCc1nc(C)c(CNc2cccc(CSc3nc(-c4cccc(OC)c4)c(C#N)c(=O)[nH]3)c2)[nH]1 [Example 4e]
> 5.30 | COc1cccc(-c2nc(SCc3cc(NCc4ccc(Cl)c(Cl)c4)ccc3O)[nH]c(=O)c2C#N)c1 [Example 4f]
> 5.30 | COc1cccc(-c2nc(SCc3cc(NCc4ccc(Cl)c(Cl)c4)cc([N+](=O)[O-])c3)[nH]c(=O)c2C#N)c1 [Example 4g]
< 4.40 | COc1cccc(-c2nc(SCCCCCn3cnc4c(NCc5ccccc5)ncnc43)[nH]c(=O)c2C#N)c1 [Example 4h]
< 4.40 | COc1cccc(-c2nc(SCCCn3cnc4c(NCc5ccccc5)ncnc43)[nH]c(=O)c2C#N)c1 [Example 4i]

— patent US20060100226A1, “2-Thiopyrimidinones as therapeutic agents” (priority 2004, published 2006)
